Test results: the supplement of paper PMC10307832

Legend:
Assay in all cases: relative viability (nuclei count vs DMSO), 5 days (fraction); higher = more cells survive
Dasatinib + Trametinib = compound: Cc1nc(Nc2ncc(C(=O)Nc3c(C)cccc3Cl)s2)cc(N2CCN(CCO)CC2)n1 [Dasatinib] + CC(=O)Nc1cccc(-n2c(=O)n(C3CC3)c(=O)c3c(Nc4ccc(I)cc4F)n(C)c(=O)c(C)c32)c1 [Trametinib] (partner 0.02 µM)
Outline: (§1)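 A single step with final 0.05% Triton X-100, 1% formaldehyde and 1 ug/ml Hoechst fixed the cells and stained nuclei 5 days after treatment. Lung cancer cell lines in 1536-well plates had been treated by pin tool the day after seeding with one drug alone or a fixed anchor-drug dose plus five library-drug doses (not always all listed) in √10 steps, and nuclei were counted on 4× images. Relative viability is the ratio of nuclei in treated wells to nuclei in vehicle wells, taken as the median of duplicate plates.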

ALW-II-49-7 + AZD7762 = compound: Cc1ccc(C(=O)Nc2cccc(C(F)(F)F)c2)cc1Nc1cncc(C(N)=O)c1 [ALW-II-49-7] + NC(=O)Nc1cc(-c2cccc(F)c2)sc1C(=O)N[C@H]1CCCNC1 [AZD7762] (partner 0.2 µM)
Outline: as §1

ALW-II-49-7 + Decitabine = compound: Cc1ccc(C(=O)Nc2cccc(C(F)(F)F)c2)cc1Nc1cncc(C(N)=O)c1 [ALW-II-49-7] + Nc1ncn([C@H]2C[C@H](O)[C@@H](CO)O2)c(=O)n1 [Decitabine] (partner 2 µM)
Outline: as §1

ALW-II-49-7 + Dasatinib = compound: Cc1ccc(C(=O)Nc2cccc(C(F)(F)F)c2)cc1Nc1cncc(C(N)=O)c1 [ALW-II-49-7] + Cc1nc(Nc2ncc(C(=O)Nc3c(C)cccc3Cl)s2)cc(N2CCN(CCO)CC2)n1 [Dasatinib] (partner 0.075 µM)
Outline: as §1

Cell Line | relative viability (Dasatinib + Trametinib; first compound 0.005 µM) | relative viability (Dasatinib + Trametinib; first compound 0.01581 µM) | relative viability (Dasatinib + Trametinib; first compound 0.05 µM) | relative viability (Dasatinib + Trametinib; first compound 0.1581 µM) | relative viability (Dasatinib + Trametinib; first compound 0.5 µM) | relative viability (ALW-II-49-7 + AZD7762; first compound 0.08 µM) | relative viability (ALW-II-49-7 + AZD7762; first compound 0.253 µM) | relative viability (ALW-II-49-7 + AZD7762; first compound 0.8 µM) | relative viability (ALW-II-49-7 + AZD7762; first compound 2.53 µM) | relative viability (ALW-II-49-7 + AZD7762; first compound 8 µM) | relative viability (ALW-II-49-7 + Decitabine; first compound 0.08 µM) | relative viability (ALW-II-49-7 + Decitabine; first compound 0.253 µM) | relative viability (ALW-II-49-7 + Decitabine; first compound 0.8 µM) | relative viability (ALW-II-49-7 + Decitabine; first compound 2.53 µM) | relative viability (ALW-II-49-7 + Decitabine; first compound 8 µM) | relative viability (ALW-II-49-7 + Dasatinib; first compound 0.08 µM) | relative viability (ALW-II-49-7 + Dasatinib; first compound 0.253 µM) | relative viability (ALW-II-49-7 + Dasatinib; first compound 0.8 µM) | relative viability (ALW-II-49-7 + Dasatinib; first compound 2.53 µM) | relative viability (ALW-II-49-7 + Dasatinib; first compound 8 µM)
LXF-289 | 0.678 | 0.746 | 0.821 | 0.555 | 0.219 | 1.08 | 1.11 | 0.981 | 1.26 | 1.22 | 0.391 | 0.372 | 0.411 | 0.407 | 0.443 | 0.213 | 0.286 | 0.24 | 0.187 | 0.183
NCI-H23 | 0.376 | 0.278 | 0.231 | 0.188 | 0.168 | 0.163 | 0.263 | 0.147 | 0.227 | 0.224 | 0.311 | 0.286 | 0.303 | 0.328 | 0.333 | 0.84 | 0.871 | 0.574 | 0.706 | 0.768
NCI-H322M | 0.543 | 0.44 | 0.429 | 0.333 | 0.269 | 0.557 | 0.584 | 0.484 | 0.698 | 0.481 | 0.618 | 0.774 | 0.637 | 0.756 | 0.671 | 0.246 | 0.256 | 0.261 | 0.251 | 0.231
NCI-H358 | 0.151 | 0.116 | 0.105 | 0.0936 | 0.089 | 0.51 | 0.711 | 0.405 | – | 0.524 | 0.19 | 0.183 | 0.22 | 0.234 | 0.232 | 0.151 | 0.159 | 0.173 | 0.192 | 0.286
NCI-H441 | 0.409 | 0.418 | 0.328 | 0.208 | 0.181 | 1.18 | 1.24 | 1.07 | 0.817 | 1.1 | 0.257 | 0.229 | 0.253 | 0.208 | 0.253 | 0.497 | 0.475 | 0.684 | 0.674 | 0.459
NCI-H460 | 0.0853 | 0.0968 | 0.0795 | 0.0504 | 0.0455 | 0.567 | 0.863 | 0.663 | 0.665 | 0.456 | 0.5 | 0.488 | 0.513 | 0.408 | 0.492 | 0.492 | 0.583 | 0.563 | 0.423 | 0.507
NCI-H522 | 0.767 | 0.63 | 0.668 | 0.591 | 0.599 | 0.787 | 0.842 | 0.754 | 0.83 | 0.934 | 0.67 | 0.669 | 0.697 | 0.732 | 0.692 | 0.979 | 0.81 | 1.05 | 0.772 | 0.987
NCI-H596 | 0.7 | 0.578 | 0.56 | 0.431 | 0.323 | 1.15 | 1.23 | 1.12 | 1.14 | 1.24 | 0.884 | 1.23 | 1.1 | 1.12 | 1.05 | 0.575 | 0.632 | 0.459 | 0.582 | 0.581
NCI-H647 | 0.372 | 0.224 | 0.244 | 0.145 | 0.116 | 0.348 | 0.402 | 0.419 | – | 0.29 | 0.322 | 0.321 | 0.396 | 0.374 | 0.307 | 0.153 | 0.131 | 0.15 | 0.161 | 0.193
NCI-H650 | 0.888 | 0.899 | 0.847 | 0.503 | 0.458 | 1.02 | 0.967 | 1.05 | 0.866 | 0.678 | 0.333 | 0.334 | 0.314 | 0.306 | 0.321 | 0.42 | 0.518 | 0.421 | 0.482 | 0.341
NCI-H727 | 0.355 | 0.281 | 0.322 | 0.296 | 0.25 | 0.495 | 0.68 | 0.611 | 0.716 | 0.591 | 0.775 | 0.884 | 0.738 | 0.824 | 0.703 | 0.352 | 0.324 | 0.193 | 0.412 | 0.446
NCI-H838 | 0.486 | 0.435 | 0.365 | 0.227 | 0.142 | 0.921 | 1.04 | 0.889 | 0.702 | 0.886 | 0.413 | 0.433 | 0.483 | 0.447 | 0.48 | 0.395 | 0.34 | 0.294 | 0.257 | 0.255
NCI-H1355 | 0.48 | 0.346 | 0.5 | 0.293 | 0.265 | 0.71 | 0.805 | 0.738 | 0.695 | 0.606 | 0.329 | 0.366 | 0.391 | 0.436 | 0.376 | 0.615 | 0.731 | 0.622 | 0.573 | 0.658
NCI-H1395 | 1.12 | 0.968 | 1.03 | 0.605 | 0.327 | 0.381 | 0.43 | 0.364 | – | 0.362 | 0.674 | 0.712 | 0.632 | – | 0.642 | 0.436 | 0.457 | 0.407 | 0.431 | 0.417
NCI-H1437 | 0.55 | 0.465 | 0.433 | 0.305 | 0.25 | 1.02 | 1.15 | 1.01 | 0.99 | 0.873 | 0.551 | 0.553 | 0.594 | 0.624 | 0.644 | 0.414 | 0.404 | 0.425 | 0.309 | 0.333
NCI-H1651 | 0.848 | 0.852 | 0.834 | 0.77 | 0.679 | 0.465 | 0.466 | 0.474 | 0.397 | 0.317 | 0.637 | 0.669 | 0.606 | 0.604 | 0.51 | 0.317 | 0.393 | 0.432 | 0.507 | 0.517
NCI-H1666 | 0.879 | 0.858 | 0.986 | 0.776 | 0.833 | 0.858 | 0.855 | 0.822 | 0.839 | 0.77 | 0.751 | 0.735 | 0.735 | 0.898 | 0.714 | 0.845 | 0.81 | 0.794 | 0.767 | 0.835
NCI-H1734 | 0.665 | 0.59 | 0.612 | 0.599 | 0.512 | 0.588 | 0.562 | 0.544 | 0.483 | 0.55 | 0.492 | 0.53 | 0.527 | 0.584 | 0.574 | 0.483 | 0.414 | 0.485 | 0.463 | 0.332
NCI-H1755 | 0.752 | 0.68 | 0.658 | 0.444 | 0.301 | 0.543 | 0.497 | 0.379 | 0.432 | 0.382 | 0.66 | 0.726 | 0.719 | 0.756 | 0.719 | 0.397 | 0.442 | 0.459 | 0.408 | 0.308
NCI-H1792 | 0.343 | 0.272 | 0.324 | 0.218 | 0.0771 | 0.836 | 0.621 | 0.591 | 0.745 | 0.454 | 0.553 | 0.356 | 0.486 | 0.506 | 0.633 | 0.896 | 0.757 | 0.876 | 0.355 | 0.732
NCI-H1793 | 0.4 | 0.353 | 0.317 | 0.357 | 0.322 | 0.412 | 0.436 | 0.487 | 0.417 | 0.289 | 0.518 | 0.527 | 0.516 | 0.471 | 0.53 | 0.398 | 0.387 | 0.296 | 0.348 | 0.406
NCI-H1915 | 0.291 | 0.245 | 0.228 | 0.151 | 0.0841 | 0.675 | 0.678 | 0.688 | 0.636 | 0.477 | 0.257 | 0.294 | 0.261 | 0.262 | 0.264 | 0.372 | 0.349 | 0.339 | 0.326 | 0.292
NCI-H1944 | 0.389 | 0.367 | 0.348 | 0.218 | 0.153 | 0.801 | 0.614 | 0.359 | 0.458 | 0.498 | 0.421 | 0.432 | 0.423 | 0.486 | 0.389 | 0.206 | 0.237 | 0.232 | 0.228 | 0.227
NCI-H1975 | 0.364 | 0.25 | 0.272 | 0.232 | 0.177 | 0.743 | 0.815 | 0.673 | – | 0.589 | 0.43 | 0.375 | 0.319 | 0.375 | 0.388 | 0.298 | 0.451 | 0.323 | 0.349 | 0.34
NCI-H1993 | 0.418 | 0.396 | 0.532 | 0.353 | 0.525 | 0.981 | 0.674 | 0.722 | 0.812 | 0.622 | 0.591 | 0.567 | 0.603 | 0.576 | 0.587 | 0.492 | 0.533 | 0.423 | 0.545 | 0.666
NCI-H2085 | 0.485 | 0.297 | 0.195 | 0.214 | 0.159 | 0.987 | 1.06 | 0.988 | 1.06 | 0.834 | 0.515 | 0.537 | 0.48 | 0.523 | 0.55 | 0.236 | 0.168 | 0.239 | 0.215 | 0.213
NCI-H2087 | 0.291 | 0.2 | 0.178 | 0.124 | 0.101 | 1.52 | 1.46 | 1.18 | 1.14 | 1.11 | 0.244 | 0.254 | 0.212 | 0.311 | 0.203 | 0.924 | 0.784 | 0.825 | 0.978 | 0.753
